In general, EC50 refers to the midpoint of the concentration-response curve. A lower EC50 goes with a more potent agent. As usually defined, the IC50 is the point on the concentration scale where inhibition reaches its midpoint.

In assay [1] the test system is Z-138 cell line. Briefly: Z-138 Proliferation Assay (Cell Titer Glo). The format is cell-based. To be noted: Homo sapiens, 120 h; Z-138 cells, 5 days incubation, ATP (Cell Titer Glo). From the text: Z-138 Proliferation Assay
Z-138 suspension cells were purchased from ATCC (American Type Culture Collection, Manassas, Va.). RPMI/Glutamax medium, penicillin-streptomycin, heat inactivated fetal bovine serum were purchased from Life Technologies, Grand Island, N.Y., USA. V-bottom polypropylene 384-well plates were purchased from Greiner Bio-One, Monroe, N.C., USA. Cell culture 384-well white opaque plates were purchased from Perkin Elmer, Waltham, Mass., USA. Cell-Titer Glo® was purchased from Promega Corporation, Madison, Wis., USA. SpectraMax M5 plate reader was purchased from Molecular Devices LLC, Sunnyvale, Calif., USA.
Z-138 suspension cells were maintained in growth medium (RPMI 1640 supplemented with 10% v/v heat inactivated fetal bovine serum and cultured at 37° C. under 5% CO2. Under assay conditions, cells were incubated in assay medium (RPMI 1640 supplemented with 10% v/v heat inactivated fetal bovine serum and 100 units/mL penicillin-streptomycin) at 37° C. under 5% CO2.
For the assessment of the effect of compounds on the proliferation of the Z-138 cell line, exponentially growing cells were plated in 384-well white opaque plates at a density of 10,000 cells/ml in a final volume of 50 μl of assay medium. A compound source plate was prepared by performing triplicate nine-point 3-fold serial dilutions in DMSO, beginning at 10 mM (final top concentration of compound in the assay was 20 μM and the DMSO was 0.2%). A 100 nL aliquot from the compound stock plate was added to its respective well in the cell plate. […] After addition of compounds, assay plates were incubated for 5 days at 37° C., 5% CO2, relative humidity >90%.
Cell viability was measured by quantitation of ATP present in the cell cultures, adding 35 μl of Cell Titer Glo® reagent to the cell plates. Luminescence was read in the SpectraMax M5 microplate reader. The concentration of compound inhibiting cell viability by 50% was determined using a 4-parametric fit of the normalized dose response curves.
On the technique in general: Cellular ATP, detected with luciferase, serves as a proxy for viable cell number.

Assay [2] has as its target T1, PRMT5/MEP50 (Homo sapiens, UniProt O14744).
T1 construct: Flag-PRMT5; made in house; host or cells: Spodoptera frugiperda (SF9) insect cells, baculovirus (pDEST8)
Briefly: PRMT5 Biochemical Assay (PRMT5/MEP50 enzyme assay on peptide substrate, 3H-SAM Flashplate). The settings on record: PRMT5/MEP50 4 nM, 3H-SAM 75 nM, peptide 40 nM, 30 min preincubation at 25 degrees Celsius. From the text: S-adenosylmethionine (SAM), S-adenosylhomocysteine (SAH), bicine, KCl, Tween20, dimethylsulfoxide (DMSO), bovine skin gelatin (BSG), and Tris(2-carboxyethyl)phosphine hydrochloride solution (TCEP) were purchased from Sigma-Aldrich at the highest level of purity possible. ^3H-SAM was purchase from American Radiolabeled Chemicals with a specific activity of 80 Ci/mmol. 384-well streptavidin Flashplates were purchased from PerkinElmer.
Peptide representative of human histone H4 residues 1-15 was synthesized with a C-terminal linker-affinity tag motif and a C-terminal amide cap by 21st Century Biochemicals. The peptide was high high-performance liquid chromatography (HPLC) purified to greater than 95% purity and confirmed by liquid chromatography mass spectrometry (LC-MS). The sequence was Ac-[…][K-Biot]-amide (SEQ ID NO.:3).
Full-length human PRMT5 (NM_006109.3) transcript variant 1 clone was amplified from a fetal brain cDNA library, incorporating flanking 5′ sequence encoding a FLAG tag ([…]) (SEQ ID NO.:4) fused directly to Ala 2 of PRMT5. Full-length human MEP50 (NM_024102) clone was amplified from a human testis cDNA library incorporating a 5′ sequence encoding a 6-histidine tag (MHHHHHH) (SEQ ID NO.:5) fused directly to Arg 2 of MEP50. The amplified genes were sublconed into pENTR/D/TEV (Life Technologies) and subsequently transferred by Gateway™ attL×attR recombination to pDEST8 baculvirus expression vector (Life Technologies).
Recombinant baculovirus and Baculovirus-Infected Insect Cells (BIIC) were generated according to Bac-to-Bac kit instructions (Life Technologies) and Wasilko, 2006, respectively. Protein over-expression was accomplished by infecting exponentially growing Spodoptera frugiperda (SF9) cell culture at 1.2×10^6 cell/ml with a 5000 fold dilution of BIIC stock. Infections were carried out at 27° C. for 72 hours, harvested by centrifugation, and stored at −80° C. for purification.
Flag-PRMT5/6His-MeP50 was eluted with 300 mM Imidazole in the same buffer. The purity of recovered protein was 87%. Reference: Wasilko, D. J. and S. E. Lee: “TIPS: titerless infected-cells preservation and scale-up” Bioprocess J., 5 (2006), pp. 29-32.
General Procedure for PRMT5/MEP50 Enzyme Assays on Peptide Substrates.
The assays were all performed in a buffer consisting of 20 mM Bicine (pH=7.6), 1 mM TCEP, 0.005% BSG, and 0.002% Tween20, prepared on the day of use. Compounds in 100% DMSO (1 ul) were spotted into a polypropylene 384-well V-bottom plates (Greiner) using a Platemate Plus outfitted with a 384-channel head (Thermo Scientific). DMSO (1 ul) was added to Columns 11, 12, 23, 24, rows A-H for the maximum signal control and 1 ul of SAH, a known product and inhibitor of PRMT5/MEP50, was added to columns 11, 12, 23, 24, rows I-P for the minimum signal control. A cocktail (40 ul) containing the PRMT5/MEP50 enzyme and the peptide was added by Multidrop Combi (Thermo-Fisher). The compounds were allowed to incubate with PRMT5/MEP50 for 30 min at 25 degrees Celsius, then a cocktail (10 ul) containing ^3H-SAM was added to initiate the reaction (final volume=51 ul). The final concentrations of the components were as follows: PRMT5/MEP50 was 4 nM, ^3H-SAM was 75 nM, peptide was 40 nM, SAH in the minimum signal control wells was 100 uM, and the DMSO concentration was 1%. The assays were stopped by the addition of non-radioactive SAM (10 ul) to a final concentration of 600 uM, which dilutes the ^3H-SAM to a level where its incorporation into the peptide substrate is no longer detectable. 50 ul of the reaction in the 384-well polypropylene plate was then transferred to a 384-well Flashplate and the biotinylated peptides were allowed to bind to the streptavidin surface for at least 1 hour before being washed three times with 0.1% Tween20 in a Biotek ELx405 plate washer. […]

Bounds are passed on as bounds.

T1 sequence (O14744 with tags, fused parts or gaps): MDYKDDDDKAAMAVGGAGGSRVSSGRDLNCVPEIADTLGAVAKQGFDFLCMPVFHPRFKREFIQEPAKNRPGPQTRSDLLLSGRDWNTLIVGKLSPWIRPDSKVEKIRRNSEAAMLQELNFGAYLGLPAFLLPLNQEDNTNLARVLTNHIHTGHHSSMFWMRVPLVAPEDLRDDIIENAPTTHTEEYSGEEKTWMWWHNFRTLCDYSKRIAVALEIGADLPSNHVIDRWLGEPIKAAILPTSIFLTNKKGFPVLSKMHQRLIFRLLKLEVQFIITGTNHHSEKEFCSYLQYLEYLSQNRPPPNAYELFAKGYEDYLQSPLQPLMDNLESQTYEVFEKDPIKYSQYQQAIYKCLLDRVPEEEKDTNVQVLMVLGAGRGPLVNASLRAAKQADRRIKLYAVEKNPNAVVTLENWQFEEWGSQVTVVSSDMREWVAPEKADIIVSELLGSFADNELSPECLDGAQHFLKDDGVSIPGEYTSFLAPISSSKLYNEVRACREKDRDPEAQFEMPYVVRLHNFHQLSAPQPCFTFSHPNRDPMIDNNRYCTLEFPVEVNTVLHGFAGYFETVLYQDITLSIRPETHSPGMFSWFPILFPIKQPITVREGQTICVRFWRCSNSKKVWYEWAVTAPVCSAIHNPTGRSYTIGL
T1 sequence (Q9BQA1 with tags, fused parts or gaps partner limits assumed): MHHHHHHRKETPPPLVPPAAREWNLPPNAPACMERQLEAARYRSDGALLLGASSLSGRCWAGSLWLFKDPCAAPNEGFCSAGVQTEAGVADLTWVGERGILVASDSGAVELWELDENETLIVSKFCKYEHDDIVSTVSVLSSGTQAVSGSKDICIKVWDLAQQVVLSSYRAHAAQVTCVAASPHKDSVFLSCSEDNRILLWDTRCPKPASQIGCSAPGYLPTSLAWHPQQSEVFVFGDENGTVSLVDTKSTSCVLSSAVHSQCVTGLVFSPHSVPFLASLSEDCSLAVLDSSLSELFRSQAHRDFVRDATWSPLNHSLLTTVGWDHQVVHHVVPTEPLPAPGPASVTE

Molecule `O=C(NC[C@H](O)CN1CCc2sccc2C1)c1cc(NC2COC2)ncn1` [Compound 1-1, (S)—N-(3-(6,7-dihydrothieno[3,2-c]pyridin-5(4H)-yl)-2-hydroxypropyl)-6-(oxetan-3-ylamino)pyrimidine-4-carboxamide] gave an EC50 in assay [1] of 1000 to 10000 nM. Further, the IC50 in assay [2] was less than 100 nM.

For the molecule `CC(=O)N1CC(Nc2cc(C(=O)NC[C@H](O)CN3CCc4sccc4C3)ncn2)C1` [Compound 1-2, (S)-6-((1-acetylazetidin-3-yl)amino)-N-(3-(6,7-dihydrothieno[3,2-c]pyridin-5(4H)-yl)-2-hydroxypropyl)pyrimidine-4-carboxamide], the half-maximal effective concentration (EC50) in assay [1] lay in the range of 101 to 1000 nM. For the same molecule, in assay [2], the IC50 is less than 100 nM.

`CC(=O)N1CCC(Nc2cc(C(=O)NC[C@H](O)CN3CCc4sccc4C3)ncn2)CC1` [Compound 1-3, (S)-6-((1-acetylpiperidin-4-yl)amino)-N-(3-(6,7-dihydrothieno[3,2-c]pyridin-5(4H)-yl)-2-hydroxypropyl)pyrimidine-4-carboxamide] registered an EC50 in assay [1] of 101 to 1000 nM. For the same molecule, the IC50 in assay [2] was less than 100 nM.

Turning to `O=C(COc1cccc2cccnc12)NCC(O)CN1CCc2sccc2C1` (stereo not shown) [Compound 1-4, N-(2-hydroxy-3-{4H,5H,6H,7H-thieno[3,2-c]pyridin-5-yl}propyl)-2-(quinolin-8-yloxy)acetamide], in assay [1], the EC50 lay within 1000 to 10000 nM. In assay [2], the half-maximal inhibitory concentration (IC50) was less than 100 nM.

The molecule `CC(=O)N1CCC(Nc2cc(C(=O)NC[C@H](O)CN3CCc4nc(C)sc4C3)ncn2)CC1` [Compound 1-7, (S)-6-((1-acetylpiperidin-4-yl)amino)-N-(2-hydroxy-3-(2-methyl-6,7-dihydrothiazolo[5,4-c]pyridin-5(4H)-yl)propyl)pyrimidine-4-carboxamide] showed an EC50 in assay [1] greater than 5000 nM. In addition, the IC50 in assay [2] lay in the range of 1000 to 10000 nM.

Regarding `Cc1nc2c(s1)CN(C[C@@H](O)CNC(=O)c1cc(NC3COC3)ncn1)CC2` [Compound 1-8, (S)—N-(2-hydroxy-3-(2-methyl-6,7-dihydrothiazolo[5,4-c]pyridin-5(4H)-yl)propyl)-6-(oxetan-3-ylamino)pyrimidine-4-carboxamide], in assay [1], the 50% effective concentration (EC50) was greater than 5000 nM. The half-maximal inhibitory concentration (IC50) in assay [2] is greater than 10000 nM.

`Cc1csc2c1CN(C[C@@H](O)CNC(=O)c1cc(NC3COC3)ncn1)CC2` [Compound 1-11, (S)—N-(2-hydroxy-3-(3-methyl-6,7-dihydrothieno[3,2-c]pyridin-5(4H)-yl)propyl)-6-(oxetan-3-ylamino)pyrimidine-4-carboxamide] had a 50% effective concentration (EC50) in assay [1] of 1000 to 10000 nM. Besides, the half-maximal inhibitory concentration (IC50) in assay [2] is 101 to 1000 nM.

In the case of `CC(=O)N1CC(Nc2cc(C(=O)NC[C@H](O)CN3CCc4scc(C)c4C3)ncn2)C1` [Compound 1-12, (S)-6-((1-acetylazetidin-3-yl)amino)-N-(2-hydroxy-3-(3-methyl-6,7-dihydrothieno[3,2-c]pyridin-5(4H)-yl)propyl)pyrimidine-4-carboxamide], in assay [1], the EC50 is 101 to 1000 nM. In addition, the IC50 in assay [2] is less than 100 nM.

Take `CC(=O)N1CCC(Nc2cc(C(=O)NC[C@H](O)CN3CCc4scc(C)c4C3)ncn2)CC1` [Compound 1-13, (S)-6-((1-acetylpiperidin-4-yl)amino)-N-(2-hydroxy-3-(3-methyl-6,7-dihydrothieno[3,2-c]pyridin-5(4H)-yl)propyl)pyrimidine-4-carboxamide]: the EC50 in assay [1] is 101 to 1000 nM. For the same molecule, the IC50 in assay [2] was less than 100 nM.

`CC(=O)N1CCC(Nc2cc(C(=O)NC[C@H](O)CN3CCc4scc(C)c4C3)ccn2)CC1` [Compound 1-14, (S)-2-((1-acetylpiperidin-4-yl)amino)-N-(2-hydroxy-3-(3-methyl-6,7-dihydrothieno[3,2-c]pyridin-5(4H)-yl)propyl)isonicotinamide]: the EC50 in assay [1] lay in the range of 101 to 1000 nM. In assay [2], the IC50 was less than 100 nM.

Molecule `O=C(NC[C@H](O)CN1CCc2ncsc2C1)c1cc(NC2COC2)ncn1` [Compound 1-16, (S)—N-(3-(6,7-dihydrothiazolo[5,4-c]pyridin-5(4H)-yl)-2-hydroxypropyl)-6-(oxetan-3-ylamino)pyrimidine-4-carboxamide] had an EC50 in assay [1] greater than 5000 nM. Moreover, the IC50 in assay [2] is greater than 10000 nM.

In assay [1], `CC(=O)N1CC(Nc2cc(C(=O)NC[C@H](O)CN3CCc4ncsc4C3)ncn2)C1` [Compound 1-17, (S)-6-((1-acetylazetidin-3-yl)amino)-N-(3-(6,7-dihydrothiazolo[5,4-c]pyridin-5(4H)-yl)-2-hydroxypropyl)pyrimidine-4-carboxamide] returned an EC50 greater than 5000 nM. Further, the concentration for half-maximal inhibition (IC50) in assay [2] is greater than 10000 nM.

On to `CC(=O)N1CCC(Nc2cc(C(=O)NC[C@H](O)CN3CCc4ncsc4C3)ncn2)CC1` [Compound 1-18, (S)-6-((1-acetylpiperidin-4-yl)amino)-N-(3-(6,7-dihydrothiazolo[5,4-c]pyridin-5(4H)-yl)-2-hydroxypropyl)pyrimidine-4-carboxamide], for which the EC50 in assay [1] was greater than 5000 nM. Also, the concentration for half-maximal inhibition (IC50) in assay [2] lay within 1000 to 10000 nM.

The molecule `CC(=O)N1CCC(Nc2cc(C(=O)NC[C@H](O)CN3CCc4ncsc4C3)ccn2)CC1` [Compound 1-19, (S)-2-((1-acetylpiperidin-4-yl)amino)-N-(3-(6,7-dihydrothiazolo[5,4-c]pyridin-5(4H)-yl)-2-hydroxypropyl)isonicotinamide] gave a concentration giving a half-maximal response (EC50) in assay [1] greater than 5000 nM. Further, the concentration for half-maximal inhibition (IC50) in assay [2] fell in the range of 1000 to 10000 nM.

Molecule `Nc1nc2c(s1)CCN(C[C@@H](O)CNC(=O)c1cc(NC3COC3)ncn1)C2` [Compound 1-20, (S)—N-(3-(2-amino-6,7-dihydrothiazolo[4,5-c]pyridin-5(4H)-yl)-2-hydroxypropyl)-6-(oxetan-3-ylamino)pyrimidine-4-carboxamide] showed an EC50 in assay [1] greater than 5000 nM. In addition, the 50% inhibitory concentration (IC50) in assay [2] was greater than 10000 nM.

In turn, `Nc1nc2c(s1)CN(C[C@@H](O)CNC(=O)c1cc(NC3COC3)ncn1)CC2` [Compound 1-23] had an EC50 in assay [1] greater than 5000 nM. The IC50 in assay [2] was greater than 10000 nM.

`CC(=O)N1CC(Nc2cc(C(=O)NC[C@H](O)CN3CCc4sc(C)nc4C3)ncn2)C1` [Compound 1-27] displayed a concentration for a half-maximal effect (EC50) in assay [1] greater than 5000 nM. Also, in assay [2], the IC50 fell in the range of 1000 to 10000 nM.

The values above are taken from US20170210751A1, “PRMT5 INHIBITORS AND USES THEREOF” (Epizyme, Inc., priority 2014, published 2017).
